Measurements as given in patent publication US20230110595A1, “MIXTURE OF PYRETHROIDS AND MILBEMYCINS AND USES THEREOF” (Valent BioSciences LLC, priority 2021, published 2023).

Columns and labels:
Format in all cases: in vivo
[1] = test system: Permethrin Resistant C. quinquefasciatus; assay: Wind tunnel bioassay, adult mosquitoes, Example 2 (September 2021)
Experimental: (§1) In this bioassay, a wind tunnel bioassay was performed in the United States of America in September 2021. Culex quinquefasciatus that were known to be resistant and susceptible to permethrin were used in the studies. The following solutions were applied to adult C. quinquefasciatus mosquitoes: 1) 0.5% moxidectin; 2) 0.5% pyrethrum; and 3) a mixture of 0.5% pyrethrum and 0.5% moxidectin.
(§2) Percent mortality was recorded at 15 minutes (“Min”), 1 hour (“Hr”), 24 hours and 48 hours. OCE:ECE ratios were calculated as in Example 1, above.

[2] = test system: Permethrin Susceptible C. quinquefasciatus; assay: as above
Experimental: as §1, §2

[3] = test system: Permethrin Resistant C. quinquefasciatus; assay: Wind tunnel bioassay, adult mosquitoes, Example 1 (May 2021)
Experimental: as §1, with “in May” for “in September”, “1) 1.5%” for “1) 0.5%”, “2) 5% permethrin; 3) 2.5%” for “2) 0.5%”, “pyrethrum; 4)” for “pyrethrum; and 3)”, “of 5% permethrin and 1.5% moxidectin; and 5) a mixture of 2.5%” for “of 0.5%”, “and 1.5%” for “and 0.5%”
(§3) To determine if the mixtures provided unexpected results, the observed combined efficacy (“OCE”) was divided by the expected combined efficacy (“ECE”) wherein the expected ECE is calculated by the Abbott method: […]
(§4) wherein ECE is the expected combined efficacy and in which A and B are the percent control given by the single active ingredients. If the ratio between the OCE of the mixture and the ECE of the mixture is greater than 1, then greater than expected interactions are present in the mixture. (Gisi, Synergistic Interaction of Fungicides in Mixtures, The American Phytopathological Society, 86:11, 1273-1279, 1996). Percent mortality was recorded at 15 minutes (“Min”), 1 hour (“Hr”), 24 hours and 48 hours.

[4] = test system: Permethrin Susceptible C. quinquefasciatus; assay: as above
Experimental: as §1, with “in May” for “in September”, “1) 1.5%” for “1) 0.5%”, “2) 5% permethrin; 3) 2.5%” for “2) 0.5%”, “pyrethrum; 4)” for “pyrethrum; and 3)”, “of 5% permethrin and 1.5% moxidectin; and 5) a mixture of 2.5%” for “of 0.5%”, “and 1.5%” for “and 0.5%”
as §3, §4

| SMILES | % Mortality ([1]; 1 Hr) [%] | % Mortality ([1]; 15 Min) [%] | % Mortality ([1]; 24 Hr) [%] | % Mortality ([1]; 48 Hr) [%] | % Mortality ([2]; 1 Hr) [%] | % Mortality ([2]; 15 Min) [%] | % Mortality ([2]; 24 Hr) [%] | % Mortality ([2]; 48 Hr) [%] | % Mortality ([3]; 1 Hr) [%] | % Mortality ([3]; 15 Min) [%] | % Mortality ([3]; 24 Hr) [%] | % Mortality ([3]; 48 Hr) [%] | % Mortality ([4]; 1 Hr) [%] | % Mortality ([4]; 15 Min) [%] | % Mortality ([4]; 24 Hr) [%] | % Mortality ([4]; 48 Hr) [%] | control ([4]; span over 15 minutes to 48 hours) [%] |
| --- | --- | --- | --- | --- | --- | --- | --- | --- | --- | --- | --- | --- | --- | --- | --- | --- | --- |
| CO/N=C1\C[C@]2(C[C@@H]3C[C@@H](C/C=C(\C)C[C@@H](C)/C=C/C=C4\CO[C@@H]5[C@H](O)C(C)=C[C@@H](C(=O)O3)[C@]45O)O2)O[C@H](/C(C)=C/C(C)C)[C@H]1C [0.5% Moxidectin, moxidectin] | 0.00 | 0.00 | 11.25 | 8.75 | 26.25 | 1.25 | 95.00 | 95.00 |  |  |  |  |  |  |  |  |  |
| CO/N=C1\C[C@]2(C[C@@H]3C[C@@H](C/C=C(\C)C[C@@H](C)/C=C/C=C4\CO[C@@H]5[C@H](O)C(C)=C[C@@H](C(=O)O3)[C@]45O)O2)O[C@H](/C(C)=C/C(C)C)[C@H]1C [1.5% Moxidectin, moxidectin] |  |  |  |  |  |  |  |  | 0 | 15 | 68.75 | 50 | 67.5 | 53.75 | 92.5 | 92.5 |  |
| CC1(C)C(C=C(Cl)Cl)C1C(=O)OCc1cccc(Oc2ccccc2)c1 (stereo not shown) [5% Permethrin, permethrin] |  |  |  |  |  |  |  |  | 81.25 | 35 | 97.5 | 96.25 | 100 | 100 | 100 | 100 | ~100 |
